The subject of the assay is α-glucosidase. Nature of the assay: in vitro α-glucosidase inhibition test (pNPG substrate, OD 405 nm); combination index by Chou-Talalay method with CompuSyn. The format is biochemical, Saccharomyces cerevisiae. To be noted: single compound. The protocol:
α-glucosidase (coming from Saccharomyces cerevisiae, Sigma);
an α-glucosidase solution with a concentration being 0.25 U/mL and a substrate p-nitrophenyl-α-D-glucopyranoside (pNPG) solution with a concentration being […] were prepared by using a PBS buffer solution (0.1 mol L−1 pH 6.8).
40 μL α-glucosidase solution was accurately removed, 100 μL of sample solution to be tested was added respectively, reacted for 10 min at 37° C., then 60 μL of substrate p-nitrophenyl-α-D-glucopyranoside (pNPG) solution was added, reacted for 15 min at 37° C., and an enzyme-linked analyzer measured at a wavelength of 405 nm.
First, daidzein, taxifolin, and 3-O-methyl quercetin were respectively prepared into 10 mg/mL mother solutions by using dimethyl sulfoxide (DMSO); and then a sample solution of the specific concentration of the daidzein, taxifolin, and 3-O-methyl quercetin and composition was prepared with PBS buffer solution.

Take `Oc1cc(O)c2cc(O)c(-c3ccc(O)c(O)c3)[o+]c2c1.[Cl-]` [Cyanidin]: for the setting “0.7 μg/mL”, the Inhibition rate amounted to 47.5 ± 1.4%.

`O=c1c(-c2ccc(O)cc2)coc2cc(O)ccc12` [Daidzein]: the Inhibition rate (8 μg/mL) worked out at 44.5±2.5% and the Inhibition rate (10 μg/mL) stood at 52.25±2.5%.

Regarding `O=c1c(O)c(-c2ccc(O)cc2O)oc2cc(O)cc(O)c12` [Morin], where the note is “1 μg/mL”, the Inhibition rate is on record as 41.2 ± 2.7%.

Regarding `O=c1cc(-c2ccc(O)c(O)c2)oc2cc(O)cc(O)c12` [Luteolin], the Inhibition rate (1 μg/mL) came to 45.5 ± 2.7%.

As for Vitexin, where the note is “10 μg/mL”, the Inhibition rate is listed as 29.2 ± 1.4%.

Regarding `O=c1c(O)c(-c2ccc(O)c(O)c2)oc2cc(O)ccc12` [Fisetin], the Inhibition rate (6 μg/mL) was determined as 46.5 ± 2.3%.

Take `O=C(CCc1ccc(O)cc1)c1c(O)cc(O)cc1O` [Phloretin]: the Inhibition rate (8 μg/mL) amounted to 46.3 ± 2.7%.

As for `O=C(/C=C/c1ccc(O)cc1)c1ccc(O)cc1O` [Isoliquiritigenin], the Inhibition rate (4 μg/mL) came to 35.2 ± 2.5%.

Consider `COc1cc(O)c2c(=O)cc(-c3ccc(O)cc3)oc2c1` [Genkwanin], for which, under “35 μg/mL”, the Inhibition rate was 70.12 ± 5.5%.

Regarding `COc1ccc(-c2coc3cc(O)cc(O)c3c2=O)cc1` [Biochanin A], the Inhibition rate (0.7 μg/mL) is given as 38.5 ± 2.1%.

As for `Oc1cc(O)c2cc(O)c(-c3cc(O)c(O)c(O)c3)[o+]c2c1.[Cl-]` [Delphinidin], the Inhibition rate (1 μg/mL) is 50.2 ± 4.3%.

Chrysin: the Inhibition rate (100 μg/mL) amounted to 51.2 ± 5.5%.

In the case of `O=c1c(O)c(-c2cc(O)c(O)c(O)c2)oc2cc(O)cc(O)c12` [Myricetin], the Inhibition rate (1 μg/mL) is 41.2 ± 1.5%.

For `O=C1c2c(O)cc(O)cc2OC(c2ccc(O)cc2O)C1O` (stereo not shown) [Dihydromorin], for the setting “15 μg/mL”, the Inhibition rate amounted to 25.7 ± 4.7%.

Take Herbacetin: the Inhibition rate (2.5 μg/mL) is recorded as 35.2 ± 1.2%.

For `O=C(O[C@@H]1Cc2c(O)cc(O)cc2O[C@@H]1c1cc(O)c(O)c(O)c1)c1cc(O)c(O)c(O)c1` [Epigallocatechin gallate], the Inhibition rate (0.06 μg/mL) is given as 42.5 ± 3.5%.

In the case of `COc1ccc(-c2oc3cc(O)cc(O)c3c(=O)c2O)cc1` [Kaempferide], the Inhibition rate (5 μg/mL) was 30.8 ± 1.3%.

For `COc1c(-c2ccc(O)c(O)c2)oc2cc(O)cc(O)c2c1=O` [3-O-methyl quercetin, 3-O-Methyl Quercetin], the Inhibition rate is, setting by setting: (2 μg/mL) 46.23±1.2%; (4 μg/mL) 53.52±3.2%; (6 μg/mL) 61.72±3.5%.

Consider `O=c1cc(-c2ccccc2)oc2cc(O)c(O)c(O)c12` [Baicalein], for which the Inhibition rate (10 μg/mL) amounted to 38.8 ± 3.3%.

On to `O=C1c2c(O)cc(O)cc2O[C@H](c2ccc(O)c(O)c2)[C@H]1O` [Taxifolin], for which the Inhibition rate (25 μg/mL) was 40.12±2.1%, the Inhibition rate (30 μg/mL) stood at 54.5±2.4% and the Inhibition rate (50 μg/mL) worked out at 75.21±3.4%.

As to `COc1ccc(-c2coc3cc(O)ccc3c2=O)cc1` [Formononetin], the Inhibition rate (20 μg/mL) worked out at 60.07 ± 5.3%.

As to `COc1ccc(C2CC(=O)c3c(O)cc(O)cc3O2)cc1O` (stereo not shown) [Hesperetin], the Inhibition rate (30 μg/mL) came out at 45.2 ± 3.2%.

As to `O=c1c(O)c(-c2ccc(O)cc2)oc2cc(O)cc(O)c12` [Kaempferol], the Inhibition rate (2.5 μg/mL) is given as 40.83 ± 2.3%.

The record behind these values is patent US11753388B2, “Composition for inhibiting alpha-glucosidase and application thereof” (ZHENGZHOU FRUIT RESEARCH INSTITUTE, CHINESE ACADEMY OF …, priority 2021, dated 2023).
